From US9079876B2, “Imidazole derivatives and preparation method and use thereof” (Beijing Orbiepharm Co., Ltd., priority 2010, dated 2015)

Columns and labels:
[1] = Pharmacokinetic study, intravenous, rats; assay type: in vivo; conditions: male SD rats, IV 2 mg/kg
Description: Cimicoxib (cimicoxib) was IV administrated to male SD rats in vivo [2 mg/kg, 2 mg/ml, menstruum: DMSO/PEG 400/30% HP-b-CD ([…])], T1/2 was 3.20 h. The half-life of compound 1 was longer than cimicoxib.

[2] = test system: rat paw swelling induced by carrageenan; assay: Rat paw swelling induced by carrageenan (inflammation model); assay type: in vivo, Wistar rats
Description: In vivo test: observation of the effect of compound 1 on rat paw swelling induced by carrageenan (inflammation model evaluation)
50 rats were randomized into 5 groups, with 10 animals in each group.
The total volume prepared for each dose group was determined based on the actual weight of the animals. A corresponding volume of purified water was taken, and was added with a sample of the test compounds or of the positive control, to allow homogenous dispersion. Sodium carboxymethyl cellulose was subsequently added, to make a homogenous suspension without obvious agglomerates.
Methods: 50 Wistar rats ([…], 167-199 g) were used in the study, with 25 males and 25 females. They were randomized into 5 groups, i.e. model group, positive control group, compound 1: low, middle and high dose groups. […] 1 hour after intragastric administration, 0.1 ml 1% carrageenan was intradermally injected in the right hind plantar paw to induce inflammation. After induction of inflammation, paw plantar volume and paw thickness were measured every another hour, consecutively for six times. Paw swelling rate (%) and inhibition rate (%) were calculated.
Assay methods: volume of the rat right paw was determined using UGO Basile plethysmograph, and the liquid level was kept constant for in the same animal in each measurement; thickness of the right hind paw were measured at the depiction line in the central paw with a digital vernier caliper.
The group mean and standard deviation of paw swelling rate in each group of animals were calculated, and then the following statistical analysis was performed. The test level was 0.05, and both statistical significance and biological significance were considered in the result analysis.
Levene's Test was used for homogeneity of variance test. Single-factor analysis of variance (ANOVA) was used for statistical analysis, if no statistical significance (P>0.05) was found. Dunnett's test (parametric method) analysis was used for multiple comparison analysis, if ANOVA found statistical significance (P≦0.05).
If there was heterogeneity of variance (P≦0.05), then the Kruskal-Wallis test was used. If the test result of Kruskal-Wallis test was statistically significant (P<0.05), then Dunnett's test (non-parametric method) was used for multiple comparison analysis.

[3] = 7 mg/kg intragastric, 1 h after inflammation
[4] = 7 mg/kg intragastric, 2 h after inflammation
[5] = 7 mg/kg intragastric, 3 h after inflammation
[6] = 7 mg/kg intragastric, 4 h after inflammation
[7] = 7 mg/kg intragastric, 5 h after inflammation
[8] = 7 mg/kg intragastric, 6 h after inflammation
[9] = 10 mg/kg intragastric, 1 h after inflammation
[10] = 10 mg/kg intragastric, 2 h after inflammation
[11] = 10 mg/kg intragastric, 3 h after inflammation
[12] = 10 mg/kg intragastric, 4 h after inflammation
[13] = 10 mg/kg intragastric, 5 h after inflammation
[14] = 10 mg/kg intragastric, 6 h after inflammation
[15] = 14 mg/kg intragastric, 1 h after inflammation
[16] = 14 mg/kg intragastric, 2 h after inflammation
[17] = 14 mg/kg intragastric, 3 h after inflammation
[18] = 14 mg/kg intragastric, 4 h after inflammation
[19] = 14 mg/kg intragastric, 5 h after inflammation
[20] = 14 mg/kg intragastric, 6 h after inflammation

CS(=O)(=O)c1ccc(-n2cnc(Cl)c2-c2ccccc2)nc1 [Compound 1, 2-(4-chloro-5-phenyl-1H-imidazol-1-yl)-5-(methylsulfonyl)pyridine]
t1/2 [1]: 5.37 ± 0.51 h | AUC(0-t) ([1]; rat, in vivo): 11400 ± 949 ng·h/mL | C0 ([1]; rat, in vivo): 1700 ± 259 ng/mL | clearance ([1]; rat, in vivo): 2.83 ± 0.27 mL/min/kg | half-life ([1]; rat, in vivo, 2 mg/ml, DMSO/PEG 400/30% HP-b-CD): 5.37 h | Vd ([1]; rat, in vivo, read-out: Vss): 1.16 ± 0.02 L/kg | inhibition rate of plantar paw thickness swelling [2, 3]: 27.44% | inhibition rate of plantar paw volume swelling [2, 3]: 0.00% | plantar paw thickness swelling rate [2, 3]: 7.97 ± 3.84% | plantar paw volume swelling rate [2, 3]: 11.62 ± 4.73% | inhibition rate of plantar paw thickness swelling [2, 4]: 63.92% | inhibition rate of plantar paw volume swelling [2, 4]: 27.91% | plantar paw thickness swelling rate [2, 4]: 5.72 ± 4.27 % | plantar paw volume swelling rate [2, 4]: 12.62 ± 4.15% | inhibition rate of plantar paw thickness swelling [2, 5]: 76.74% | inhibition rate of plantar paw volume swelling [2, 5]: 43.96% | plantar paw thickness swelling rate [2, 5]: 4.01 ± 3.33 % | plantar paw volume swelling rate [2, 5]: 11.87 ± 3.62 % | inhibition rate of plantar paw thickness swelling [2, 6]: 77.45% | inhibition rate of plantar paw volume swelling [2, 6]: 58.90% | plantar paw thickness swelling rate [2, 6]: 4.29 ± 4.47 % | plantar paw volume swelling rate [2, 6]: 11.14 ± 3.73 % | inhibition rate of plantar paw thickness swelling [2, 7]: 85.81% | inhibition rate of plantar paw volume swelling [2, 7]: 55.32% | plantar paw thickness swelling rate [2, 7]: 2.68 ± 3.82 % | plantar paw volume swelling rate [2, 7]: 12.53 ± 5.03 % | inhibition rate of plantar paw thickness swelling [2, 8]: 89.21% | inhibition rate of plantar paw volume swelling [2, 8]: 57.59% | plantar paw thickness swelling rate [2, 8]: 1.67 ± 4.28 % | plantar paw volume swelling rate [2, 8]: 11.75 ± 4.71 % | inhibition rate of plantar paw thickness swelling [2, 9]: 0.00% | inhibition rate of plantar paw volume swelling [2, 9]: 0.00% | plantar paw thickness swelling rate [2, 9]: 12.91 ± 4.89% | plantar paw volume swelling rate [2, 9]: 12.48 ± 5.01% | inhibition rate of plantar paw thickness swelling [2, 10]: 50.35% | inhibition rate of plantar paw volume swelling [2, 10]: 6.86% | plantar paw thickness swelling rate [2, 10]: 7.87 ± 3.91 % | plantar paw volume swelling rate [2, 10]: 16.30 ± 5.55% | inhibition rate of plantar paw thickness swelling [2, 11]: 60.54% | inhibition rate of plantar paw volume swelling [2, 11]: 24.73% | plantar paw thickness swelling rate [2, 11]: 6.80 ± 3.68 % | plantar paw volume swelling rate [2, 11]: 15.95 ± 5.92% | inhibition rate of plantar paw thickness swelling [2, 12]: 69.63% | inhibition rate of plantar paw volume swelling [2, 12]: 45.15% | plantar paw thickness swelling rate [2, 12]: 5.78 ± 3.69 % | plantar paw volume swelling rate [2, 12]: 14.87 ± 5.07 % | inhibition rate of plantar paw thickness swelling [2, 13]: 71.80% | inhibition rate of plantar paw volume swelling [2, 13]: 44.78% | plantar paw thickness swelling rate [2, 13]: 5.32 ± 3.99 % | plantar paw volume swelling rate [2, 13]: 15.48 ± 5.58 % | inhibition rate of plantar paw thickness swelling [2, 14]: 66.63% | inhibition rate of plantar paw volume swelling [2, 14]: 43.68% | plantar paw thickness swelling rate [2, 14]: 5.16 ± 3.94 % | plantar paw volume swelling rate [2, 14]: 15.61 ± 7.62 % | inhibition rate of plantar paw thickness swelling [2, 15]: 33.98% | inhibition rate of plantar paw volume swelling [2, 15]: 0.77% | plantar paw thickness swelling rate [2, 15]: 7.25 ± 4.10% | plantar paw volume swelling rate [2, 15]: 10.82 ± 4.28% | inhibition rate of plantar paw thickness swelling [2, 16]: 67.67% | inhibition rate of plantar paw volume swelling [2, 16]: 30.59% | plantar paw thickness swelling rate [2, 16]: 5.12 ± 3.74 % | plantar paw volume swelling rate [2, 16]: 12.15 ± 5.20% | inhibition rate of plantar paw thickness swelling [2, 17]: 77.77% | inhibition rate of plantar paw volume swelling [2, 17]: 42.44% | plantar paw thickness swelling rate [2, 17]: 3.83 ± 2.59 % | plantar paw volume swelling rate [2, 17]: 12.20 ± 5.19 % | inhibition rate of plantar paw thickness swelling [2, 18]: 79.53% | inhibition rate of plantar paw volume swelling [2, 18]: 48.46% | plantar paw thickness swelling rate [2, 18]: 3.90 ± 3.54 % | plantar paw volume swelling rate [2, 18]: 13.97 ± 6.25 % | inhibition rate of plantar paw thickness swelling [2, 19]: 86.47% | inhibition rate of plantar paw volume swelling [2, 19]: 53.52% | plantar paw thickness swelling rate [2, 19]: 2.55 ± 2.95 % | plantar paw volume swelling rate [2, 19]: 13.03 ± 4.88 % | inhibition rate of plantar paw thickness swelling [2, 20]: 84.04% | inhibition rate of plantar paw volume swelling [2, 20]: 59.93% | plantar paw thickness swelling rate [2, 20]: 2.47 ± 2.70 % | plantar paw volume swelling rate [2, 20]: 11.10 ± 4.42 % | inhibition of the paw swelling rate ([2]; low, middle and high dose groups (7, 10, 14 mg/kg), 4 hours after inflammation): above 30%
